Measurements as given in the supplement of paper PMC8671470.

These molecules were tested on MV4-11 (assay: cell viability (% survival relative to DMSO control); higher = less cytotoxic). Conditions: drug1 concentration 50 nM; drug2 concentration 1000 nM; 72 h.
Experimental: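 8x8 drug-combination matrices (0–5000 nM; rosiglitazone and lestaurtinib 0–1000 nM) were run in MV4-11 cells for 72 h with CellTiter-Glo read-out. Survival is normalised to DMSO and 10 µM bortezomib and clipped at 100%.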

Going from `O=C(C1CC1)N1CC[C@@H](C=C2NNC(=O)N2c2ccc(-c3ccc4occc4c3)cc2)C1` + C[C@H](NC(=O)c1sccc1OCc1ccc(Cl)cc1)c1ccccc1 [as1949490] to `CC(C)c1onc(-c2c(Cl)cccc2Cl)c1COc1ccc(/C=C/c2cccc(C(=O)O)c2)c(Cl)c1` [GW4064] + Cn1cc(-c2ccncc2)c(-c2ccc(OCc3ccc4ccccc4n3)cc2)n1 [PF-02545920], the cell viability falls from 98% to 97.2%.

`O=C(C1CC1)N1CC[C@@H](C=C2NNC(=O)N2c2ccc(-c3ccc4occc4c3)cc2)C1` + O=C(c1c2ccccc2cc2ccccc12)N1CCC(N2CCC[C@@H](C(=O)N3CCOCC3)C2)CC1 [CP-640186] showed a cell viability of 98.6%.

Same assay, conditions: drug1 concentration 50 nM; drug2 concentration 5000 nM; 72 h

First: O=C(C1CC1)N1CC[C@@H](C=C2NNC(=O)N2c2ccc(-c3ccc4occc4c3)cc2)C1 + CS(=O)(=O)N1CCN(Cc2cc3nc(-c4cccc5[nH]ncc45)nc(N4CCOCC4)c3s2)CC1 [Pictilisib]
Second: CC(C)c1onc(-c2c(Cl)cccc2Cl)c1COc1ccc(/C=C/c2cccc(C(=O)O)c2)c(Cl)c1 [GW4064] + Cn1cc(-c2ccncc2)c(-c2ccc(OCc3ccc4ccccc4n3)cc2)n1 [PF-02545920]
The cell viability of the first is higher: 58.1% for the first, 49.3% for the second.

With `O=C(C1CC1)N1CC[C@@H](C=C2NNC(=O)N2c2ccc(-c3ccc4occc4c3)cc2)C1` + C[C@H](NC(=O)c1sccc1OCc1ccc(Cl)cc1)c1ccccc1 [as1949490] the cell viability was 71.7%.
Molecule `O=C(C1CC1)N1CC[C@@H](C=C2NNC(=O)N2c2ccc(-c3ccc4occc4c3)cc2)C1` + O=C(c1c2ccccc2cc2ccccc12)N1CCC(N2CCC[C@@H](C(=O)N3CCOCC3)C2)CC1 [CP-640186] has a cell viability of 96.1%.

Same assay, conditions: drug1 concentration 100 nM; drug2 concentration 5 nM; 72 h

First: O=C(C1CC1)N1CC[C@@H](C=C2NNC(=O)N2c2ccc(-c3ccc4occc4c3)cc2)C1 + CS(=O)(=O)N1CCN(Cc2cc3nc(-c4cccc5[nH]ncc45)nc(N4CCOCC4)c3s2)CC1 [Pictilisib]
Second: CC(C)c1onc(-c2c(Cl)cccc2Cl)c1COc1ccc(/C=C/c2cccc(C(=O)O)c2)c(Cl)c1 [GW4064] + Cn1cc(-c2ccncc2)c(-c2ccc(OCc3ccc4ccccc4n3)cc2)n1 [PF-02545920]
The cell viability of the first is lower: 89.5% for the first, 95.2% for the second.

In the case of `O=C(C1CC1)N1CC[C@@H](C=C2NNC(=O)N2c2ccc(-c3ccc4occc4c3)cc2)C1` + C[C@H](NC(=O)c1sccc1OCc1ccc(Cl)cc1)c1ccccc1 [as1949490], the cell viability is reported as 83.1%.
With `O=C(C1CC1)N1CC[C@@H](C=C2NNC(=O)N2c2ccc(-c3ccc4occc4c3)cc2)C1` + O=C(c1c2ccccc2cc2ccccc12)N1CCC(N2CCC[C@@H](C(=O)N3CCOCC3)C2)CC1 [CP-640186] the cell viability was 98.1%.

Same assay, conditions: drug1 concentration 100 nM; drug2 concentration 10 nM; 72 h

Going from `O=C(C1CC1)N1CC[C@@H](C=C2NNC(=O)N2c2ccc(-c3ccc4occc4c3)cc2)C1` + CS(=O)(=O)N1CCN(Cc2cc3nc(-c4cccc5[nH]ncc45)nc(N4CCOCC4)c3s2)CC1 [Pictilisib] to `CC(C)c1onc(-c2c(Cl)cccc2Cl)c1COc1ccc(/C=C/c2cccc(C(=O)O)c2)c(Cl)c1` [GW4064] + Cn1cc(-c2ccncc2)c(-c2ccc(OCc3ccc4ccccc4n3)cc2)n1 [PF-02545920], the cell viability rises from 91.9% to 99.5%.

With `O=C(C1CC1)N1CC[C@@H](C=C2NNC(=O)N2c2ccc(-c3ccc4occc4c3)cc2)C1` + C[C@H](NC(=O)c1sccc1OCc1ccc(Cl)cc1)c1ccccc1 [as1949490] the cell viability was > 100%.
With `O=C(C1CC1)N1CC[C@@H](C=C2NNC(=O)N2c2ccc(-c3ccc4occc4c3)cc2)C1` + O=C(c1c2ccccc2cc2ccccc12)N1CCC(N2CCC[C@@H](C(=O)N3CCOCC3)C2)CC1 [CP-640186] the cell viability was > 100%.

Same assay, conditions: drug1 concentration 100 nM; drug2 concentration 50 nM; 72 h

Compared with `O=C(C1CC1)N1CC[C@@H](C=C2NNC(=O)N2c2ccc(-c3ccc4occc4c3)cc2)C1` + CS(=O)(=O)N1CCN(Cc2cc3nc(-c4cccc5[nH]ncc45)nc(N4CCOCC4)c3s2)CC1 [Pictilisib], `CC(C)c1onc(-c2c(Cl)cccc2Cl)c1COc1ccc(/C=C/c2cccc(C(=O)O)c2)c(Cl)c1` [GW4064] + Cn1cc(-c2ccncc2)c(-c2ccc(OCc3ccc4ccccc4n3)cc2)n1 [PF-02545920] is higher in cell viability: 92% for the first, > 100% for the second.

In the case of `O=C(C1CC1)N1CC[C@@H](C=C2NNC(=O)N2c2ccc(-c3ccc4occc4c3)cc2)C1` + C[C@H](NC(=O)c1sccc1OCc1ccc(Cl)cc1)c1ccccc1 [as1949490], the cell viability is reported as > 100%.
In the case of `O=C(C1CC1)N1CC[C@@H](C=C2NNC(=O)N2c2ccc(-c3ccc4occc4c3)cc2)C1` + O=C(c1c2ccccc2cc2ccccc12)N1CCC(N2CCC[C@@H](C(=O)N3CCOCC3)C2)CC1 [CP-640186], the cell viability is reported as > 100%.

Same assay, conditions: drug1 concentration 100 nM; drug2 concentration 100 nM; 72 h

Compared with `O=C(C1CC1)N1CC[C@@H](C=C2NNC(=O)N2c2ccc(-c3ccc4occc4c3)cc2)C1` + CS(=O)(=O)N1CCN(Cc2cc3nc(-c4cccc5[nH]ncc45)nc(N4CCOCC4)c3s2)CC1 [Pictilisib], `CC(C)c1onc(-c2c(Cl)cccc2Cl)c1COc1ccc(/C=C/c2cccc(C(=O)O)c2)c(Cl)c1` [GW4064] + Cn1cc(-c2ccncc2)c(-c2ccc(OCc3ccc4ccccc4n3)cc2)n1 [PF-02545920] is lower in cell viability: > 100% for the first, 96.7% for the second.

In the case of `O=C(C1CC1)N1CC[C@@H](C=C2NNC(=O)N2c2ccc(-c3ccc4occc4c3)cc2)C1` + C[C@H](NC(=O)c1sccc1OCc1ccc(Cl)cc1)c1ccccc1 [as1949490], the cell viability is reported as 92.8%.
With `O=C(C1CC1)N1CC[C@@H](C=C2NNC(=O)N2c2ccc(-c3ccc4occc4c3)cc2)C1` + O=C(c1c2ccccc2cc2ccccc12)N1CCC(N2CCC[C@@H](C(=O)N3CCOCC3)C2)CC1 [CP-640186] the cell viability was > 100%.

Same assay, conditions: drug1 concentration 100 nM; drug2 concentration 500 nM; 72 h

Going from `O=C(C1CC1)N1CC[C@@H](C=C2NNC(=O)N2c2ccc(-c3ccc4occc4c3)cc2)C1` + CS(=O)(=O)N1CCN(Cc2cc3nc(-c4cccc5[nH]ncc45)nc(N4CCOCC4)c3s2)CC1 [Pictilisib] to `CC(C)c1onc(-c2c(Cl)cccc2Cl)c1COc1ccc(/C=C/c2cccc(C(=O)O)c2)c(Cl)c1` [GW4064] + Cn1cc(-c2ccncc2)c(-c2ccc(OCc3ccc4ccccc4n3)cc2)n1 [PF-02545920], the cell viability rises from 94% to > 100%.

For `O=C(C1CC1)N1CC[C@@H](C=C2NNC(=O)N2c2ccc(-c3ccc4occc4c3)cc2)C1` + C[C@H](NC(=O)c1sccc1OCc1ccc(Cl)cc1)c1ccccc1 [as1949490], the cell viability was > 100%.
`O=C(C1CC1)N1CC[C@@H](C=C2NNC(=O)N2c2ccc(-c3ccc4occc4c3)cc2)C1` + O=C(c1c2ccccc2cc2ccccc12)N1CCC(N2CCC[C@@H](C(=O)N3CCOCC3)C2)CC1 [CP-640186] gave a cell viability of 90.1%.

Same assay, conditions: drug1 concentration 100 nM; drug2 concentration 1000 nM; 72 h

In the case of `O=C(C1CC1)N1CC[C@@H](C=C2NNC(=O)N2c2ccc(-c3ccc4occc4c3)cc2)C1` + CS(=O)(=O)N1CCN(Cc2cc3nc(-c4cccc5[nH]ncc45)nc(N4CCOCC4)c3s2)CC1 [Pictilisib], the cell viability is reported as 80.5%.
`O=C(C1CC1)N1CC[C@@H](C=C2NNC(=O)N2c2ccc(-c3ccc4occc4c3)cc2)C1` + C[C@H](NC(=O)c1sccc1OCc1ccc(Cl)cc1)c1ccccc1 [as1949490] was tested, and the cell viability was 89.7%.
